Source: patent US11439642B2 (Adverio Pharma GmbH, priority 2010, dated 2022)

Test system: conscious spontaneously hypertensive rats (SHR Okamoto)
Experiment: Radiotelemetric measurement of blood pressure on conscious spontaneously hypertensive rats
Type: in vivo, rat
Excerpt: A commercially available telemetry system from DATA SCIENCES INTERNATIONAL DSI, USA, is employed for the blood pressure measurements on conscious rats described below.
The system consists of 3 main components: • implantable transmitters (Physiotel® telemetry transmitter) • receivers (Physiotel® receiver) which are linked via a multiplexer (DSI Data Exchange Matrix) to a • data acquisition computer.
The telemetry system makes it possible to continuously record blood pressure, heart rate and body motions of conscious animals in their usual habitat.
The investigations are carried out on adult female spontaneously hypertensive rats (SHR Okamoto) with a body weight of >200 g. SHR/NCrl from the Okamoto Kyoto School of Medicine, 1963 were a cross of male Wistar Kyoto rats with highly elevated blood pressure and female rats having a slightly elevated blood pressure and at F13 handed over to the U.S. National Institutes of Health.
After transmitter implantation, the experimental animals are housed singly in type 3 Makrolon cages. They have free access to standard feed and water.
The day/night rhythm in the experimental laboratory is changed by the room lighting at 6.00 am and at 7.00 pm.
The telemetry transmitters TA11 PA-C40 used are surgically implanted under aseptic conditions in the experimental animals at least 14 days before the first experimental use. The animals instrumented in this way can be employed repeatedly after the wound has healed and the implant has settled.
For the implantation, the fasted animals are anaesthetized with pentobarbital (Nembutal, Sanofi: 50 mg/kg i.p.) and shaved and disinfected over a large area of their abdomens. After the abdominal cavity has been opened along the linea alba, the liquid-filled measuring catheter of the system is inserted into the descending aorta in the cranial direction above the bifurcation and fixed with tissue glue (VetBonD™, 3M). The transmitter housing is fixed intraperitoneally to the abdominal wall muscle, and layered closure of the wound is performed.
An antibiotic (Tardomyocel COMP, Bayer, 1 ml/kg s.c.) is administered postoperatively for prophylaxis of infection.
Unless indicated otherwise, the substances to be investigated are administered orally by gavage in each case to a group of animals (n=6). The test substances are dissolved in suitable solvent mixtures, or suspended in 0.5% strength Tylose, appropriate for an administration volume of 5 ml/kg of body weight.
A solvent-treated group of animals is employed as control.
The telemetry measuring unit present is configured for 24 animals. Each experiment is recorded under an experiment number (Vyear month day).
Each of the instrumented rats living in the system is assigned a separate receiving antenna (1010 Receiver, DSI).
The implanted transmitters can be activated externally by means of an incorporated magnetic switch and are switched to transmission in the run-up to the experiment. The emitted signals can be detected online by a data acquisition system (Dataquest™ A.R.T. for Windows, DSI) and be appropriately processed. The data are stored in each case in a file created for this purpose and bearing the experiment number.
In the standard procedure, the following are measured for 10-second periods in each case: • systolic blood pressure (SBP) • diastolic blood pressure (DBP) • mean arterial pressure (MAP) • heart rate (HR) • activity (ACT).
The acquisition of measured values is repeated under computer control at 5-minute intervals. The source data obtained as absolute value are corrected in the diagram with the currently measured barometric pressure (Ambient Pressure Reference Monitor; APR-1) and stored as individual data. Further technical details are given in the extensive documentation from the manufacturing company (DSI).
Unless indicated otherwise, the test substances are administered at 9.00 am on the day of the experiment. Following the administration, the parameters described above are measured over 24 hours. […]

[1] = 0.3 mg/kg p.o., 0 hours after substance administration
[2] = 0.3 mg/kg p.o., 1 hours after substance administration
[3] = 0.3 mg/kg p.o., 2 hours after substance administration
[4] = 0.3 mg/kg p.o., 3 hours after substance administration
[5] = 0.3 mg/kg p.o., 4 hours after substance administration
[6] = 0.3 mg/kg p.o., 5 hours after substance administration
[7] = 0.3 mg/kg p.o., 6 hours after substance administration
[8] = 0.3 mg/kg p.o., 7 hours after substance administration
[9] = 0.3 mg/kg p.o., 8 hours after substance administration
[10] = 0.3 mg/kg p.o., 9 hours after substance administration
[11] = 0.3 mg/kg p.o., 10 hours after substance administration
[12] = 0.3 mg/kg p.o., 11 hours after substance administration
[13] = 0.3 mg/kg p.o., 12 hours after substance administration
[14] = 0.3 mg/kg p.o., 13 hours after substance administration
[15] = 0.3 mg/kg p.o., 14 hours after substance administration
[16] = 0.3 mg/kg p.o., 15 hours after substance administration
[17] = 0.3 mg/kg p.o., 16 hours after substance administration
[18] = 0.3 mg/kg p.o., 17 hours after substance administration
[19] = 0.3 mg/kg p.o., 18 hours after substance administration
[20] = 0.3 mg/kg p.o., 19 hours after substance administration
[21] = 0.3 mg/kg p.o., 20 hours after substance administration
[22] = 0.3 mg/kg p.o., 21 hours after substance administration
[23] = 0.3 mg/kg p.o., 22 hours after substance administration
[24] = 0.3 mg/kg p.o., 23 hours after substance administration
[25] = 0.3 mg/kg p.o., 24 hours after substance administration

For `COC(=O)Nc1c(N)nc(-c2nn(Cc3ccccc3F)c3ncc(F)cc23)nc1N` [Example 1, Methyl {4,6-diamino-2-[5-fluoro-1-(2-fluorobenzyl)-1H-pyrazolo[3,4-b]pyridin-3-yl]pyrimidin-5-yl}carbamate], the mean blood pressure [1] was 151.0 mm Hg, the mean blood pressure [2] was 148.4 mm Hg and the mean blood pressure [3] was 136.4 mm Hg. It also gave a mean blood pressure [4] of 130.6 mm Hg, a mean blood pressure [5] of 129.1 mm Hg and a mean blood pressure [6] of 132.8 mm Hg. It also gave a mean blood pressure [7] of 125.6 mm Hg, a mean blood pressure [8] of 131.9 mm Hg and a mean blood pressure [9] of 131.8 mm Hg. For the same compound, the mean blood pressure [10] was 138.5 mm Hg, the mean blood pressure [11] was 138.3 mm Hg and the mean blood pressure [12] was 138.9 mm Hg. For the same compound, the mean blood pressure [13] was 137.7 mm Hg, the mean blood pressure [14] was 142.9 mm Hg and the mean blood pressure [15] was 144.5 mm Hg. It also gave a mean blood pressure [16] of 143.8 mm Hg, a mean blood pressure [17] of 146.3 mm Hg and a mean blood pressure [18] of 141.8 mm Hg. The mean blood pressure [19] was 138.4 mm Hg, the mean blood pressure [20] was 149.2 mm Hg and the mean blood pressure [21] was 145.1 mm Hg. The mean blood pressure [22] was 142.1 mm Hg, the mean blood pressure [23] was 141.8 mm Hg and the mean blood pressure [24] was 143.6 mm Hg. It also gave a mean blood pressure [25] of 135.1 mm Hg, a mean blood pressure (3.0 mg/kg p.o., 0 hours after substance administration) of 149.0 mm Hg and a mean blood pressure (3.0 mg/kg p.o., 1 hours after substance administration) of 129.3 mm Hg. It also gave a mean blood pressure (3.0 mg/kg p.o., 2 hours after substance administration) of 111.1 mm Hg, a mean blood pressure (3.0 mg/kg p.o., 3 hours after substance administration) of 106.0 mm Hg and a mean blood pressure (3.0 mg/kg p.o., 4 hours after substance administration) of 107.8 mm Hg. The mean blood pressure (3.0 mg/kg p.o., 5 hours after substance administration) was 109.3 mm Hg, the mean blood pressure (3.0 mg/kg p.o., 6 hours after substance administration) was 106.8 mm Hg and the mean blood pressure (3.0 mg/kg p.o., 7 hours after substance administration) was 110.9 mm Hg. The mean blood pressure (3.0 mg/kg p.o., 8 hours after substance administration) was 109.8 mm Hg, the mean blood pressure (3.0 mg/kg p.o., 9 hours after substance administration) was 114.3 mm Hg and the mean blood pressure (3.0 mg/kg p.o., 10 hours after substance administration) was 114.5 mm Hg. For the same compound, the mean blood pressure (3.0 mg/kg p.o., 11 hours after substance administration) was 115.6 mm Hg, the mean blood pressure (3.0 mg/kg p.o., 12 hours after substance administration) was 118.8 mm Hg and the mean blood pressure (3.0 mg/kg p.o., 13 hours after substance administration) was 120.4 mm Hg. The mean blood pressure (3.0 mg/kg p.o., 14 hours after substance administration) was 122.8 mm Hg, the mean blood pressure (3.0 mg/kg p.o., 15 hours after substance administration) was 125.8 mm Hg and the mean blood pressure (3.0 mg/kg p.o., 16 hours after substance administration) was 131.5 mm Hg. The mean blood pressure (3.0 mg/kg p.o., 17 hours after substance administration) was 124.7 mm Hg, the mean blood pressure (3.0 mg/kg p.o., 18 hours after substance administration) was 129.6 mm Hg and the mean blood pressure (3.0 mg/kg p.o., 19 hours after substance administration) was 135.6 mm Hg. The mean blood pressure (3.0 mg/kg p.o., 20 hours after substance administration) was 135.2 mm Hg, the mean blood pressure (3.0 mg/kg p.o., 21 hours after substance administration) was 129.3 mm Hg and the mean blood pressure (3.0 mg/kg p.o., 22 hours after substance administration) was 128.3 mm Hg. It also gave a mean blood pressure (3.0 mg/kg p.o., 23 hours after substance administration) of 130.2 mm Hg and a mean blood pressure (3.0 mg/kg p.o., 24 hours after substance administration) of 130.8 mm Hg.

Work on `COC(=O)N(C)c1c(N)nc(-c2nn(Cc3ccccc3F)c3ncc(F)cc23)nc1N` [Example 2] yielded a mean blood pressure [1] of 161.3 mm Hg, a mean blood pressure [2] of 145.7 mm Hg and a mean blood pressure [3] of 130.5 mm Hg. It also gave a mean blood pressure [4] of 121.5 mm Hg, a mean blood pressure [5] of 123.1 mm Hg and a mean blood pressure [6] of 121.6 mm Hg. The mean blood pressure [7] was 123.8 mm Hg, the mean blood pressure [8] was 124.4 mm Hg and the mean blood pressure [9] was 128.7 mm Hg. It also gave a mean blood pressure [10] of 133.7 mm Hg, a mean blood pressure [11] of 139.2 mm Hg and a mean blood pressure [12] of 137.9 mm Hg. For the same compound, the mean blood pressure [13] was 143.0 mm Hg, the mean blood pressure [14] was 146.0 mm Hg and the mean blood pressure [15] was 149.2 mm Hg. For the same compound, the mean blood pressure [16] was 152.3 mm Hg, the mean blood pressure [17] was 155.5 mm Hg and the mean blood pressure [18] was 156.3 mm Hg. It also gave a mean blood pressure [19] of 157.3 mm Hg, a mean blood pressure [20] of 156.9 mm Hg and a mean blood pressure [21] of 156.3 mm Hg. It also gave a mean blood pressure [22] of 149.3 mm Hg, a mean blood pressure [23] of 147.1 mm Hg and a mean blood pressure [24] of 153.1 mm Hg. It also gave a mean blood pressure [25] of 152.3 mm Hg.
